{
  "source": "patent US8703107B2",
  "about": "“Cosmetic composition including leucodopachrome derivative” (Chanel Parfums Beaute, priority 2009, dated 2014)",
  "system": "Hyperpigmented melanocytes derived from normal neonatal prepuce",
  "test": "Effect on melanin synthesis in cultured hyperpigmented melanocytes (melanin content read at 490 nm)",
  "format": "cell-based",
  "protocol": "3 solutions of methyl ester of triacetyl leucodopachrome were prepared, respectively at concentrations of 0.0025%, 0.00025% and 0.000025% by weight in DMSO.\nThe effect of the methyl ester of (S)-triacetyl leucodopachrome on melanin synthesis was evaluated according to the following procedure.\nHyperpigmented melanocytes derived from normal neonatal prepuce of separate donors were bought from the company Cascade Biologics (Portland, Oreg., United States). The cells were seeded in 6-well plates and cultured in a growth medium of the melanocytes (medium topped up with bovine pituitary extract, fetal bovine serum, bovine insulin, transferrin, conventional fibroblast growth factor, hydrocortisone, heparin and phorbol 12-myristate 13-acetate).\nIn a second stage, the cells were incubated with a growth medium (MGM, Clonetics) containing the active products, in three copies, for 5 days. The medium was withdrawn and the cells washed with PBS (Gibco/Invitrogen). The cells were lyzed and the melanin solubilized in NaOH.\nThe supernatant was centrifuged. After centrifugation, the clear lysate was transferred to a new plate and the melanin content was measured on an ELISA reader at 490 nm. The pellets were visualized on an Alphalnnotech imager.",
  "data": [
    {"smiles": "COC(=O)[C@@H]1Cc2cc(OC(C)=O)c(OC(C)=O)cc2N1C(C)=O", "note": "[methyl ester of (S)-triacetyl leucodopachrome]", "values": [
      {"measurement": "inhibition of the melanin synthesis (in words)", "setting": "0.000025% to 0.0025% solutions", "value": "increases with the concentration"},
      {"measurement": "inhibition at 2.5e-05 % strength", "setting": "Melanocyte, 120 h, 0.000025% by weight solution in DMSO, 5 days incubation, melanin at 490 nm", "value": 5.49, "unit": "%"},
      {"measurement": "inhibition at 0.00025 % strength", "setting": "Melanocyte, 120 h, 0.00025% by weight solution in DMSO, 5 days incubation, melanin at 490 nm", "value": 6.7, "unit": "%"},
      {"measurement": "inhibition at 0.0025 % strength", "setting": "Melanocyte, 120 h, 0.0025% by weight solution in DMSO, 5 days incubation, melanin at 490 nm", "value": 32.8, "unit": "%"}
    ]}
  ]
}
